The source of these data is US20230066011A1, “PYRROLOPYRIMIDINE DERIVATIVE, AND PHARMACEUTICAL COMPOSITION FOR PREVENTING OR TREATING PROTEIN KINASE-RELATED DISEASE COMPRISING SAME AS ACTIVE INGREDIENT” (VORONOI CO., LTD., priority 2019, published 2023).

Holding throughout (format): biochemical
For one assay, the target named is LRRK2 (G2019S) (Homo sapiens, UniProt Q5S007, G2019S). Nature of the assay: LRRK2 G2019S enzyme inhibition, ADP-Glo kinase assay. Details: purchased SignalChem L10-12GG. Conditions: ATP 25 μM. A digest of the protocol: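 Purified human LRRK2 G2019S (16 ng) with 25 μM ATP and 0.2 μg substrate, 2 h at 25° C. in Tris-HCl pH 7.4, MgCl2, BSA, DTT buffer; compounds at 12 final concentrations, 50 μM down to 0.000001024 μM. ADP-Glo luminescence versus solvent control gave IC50.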
Sequence of LRRK2 (G2019S) (Q5S007 970-2527 G2019S limits assumed): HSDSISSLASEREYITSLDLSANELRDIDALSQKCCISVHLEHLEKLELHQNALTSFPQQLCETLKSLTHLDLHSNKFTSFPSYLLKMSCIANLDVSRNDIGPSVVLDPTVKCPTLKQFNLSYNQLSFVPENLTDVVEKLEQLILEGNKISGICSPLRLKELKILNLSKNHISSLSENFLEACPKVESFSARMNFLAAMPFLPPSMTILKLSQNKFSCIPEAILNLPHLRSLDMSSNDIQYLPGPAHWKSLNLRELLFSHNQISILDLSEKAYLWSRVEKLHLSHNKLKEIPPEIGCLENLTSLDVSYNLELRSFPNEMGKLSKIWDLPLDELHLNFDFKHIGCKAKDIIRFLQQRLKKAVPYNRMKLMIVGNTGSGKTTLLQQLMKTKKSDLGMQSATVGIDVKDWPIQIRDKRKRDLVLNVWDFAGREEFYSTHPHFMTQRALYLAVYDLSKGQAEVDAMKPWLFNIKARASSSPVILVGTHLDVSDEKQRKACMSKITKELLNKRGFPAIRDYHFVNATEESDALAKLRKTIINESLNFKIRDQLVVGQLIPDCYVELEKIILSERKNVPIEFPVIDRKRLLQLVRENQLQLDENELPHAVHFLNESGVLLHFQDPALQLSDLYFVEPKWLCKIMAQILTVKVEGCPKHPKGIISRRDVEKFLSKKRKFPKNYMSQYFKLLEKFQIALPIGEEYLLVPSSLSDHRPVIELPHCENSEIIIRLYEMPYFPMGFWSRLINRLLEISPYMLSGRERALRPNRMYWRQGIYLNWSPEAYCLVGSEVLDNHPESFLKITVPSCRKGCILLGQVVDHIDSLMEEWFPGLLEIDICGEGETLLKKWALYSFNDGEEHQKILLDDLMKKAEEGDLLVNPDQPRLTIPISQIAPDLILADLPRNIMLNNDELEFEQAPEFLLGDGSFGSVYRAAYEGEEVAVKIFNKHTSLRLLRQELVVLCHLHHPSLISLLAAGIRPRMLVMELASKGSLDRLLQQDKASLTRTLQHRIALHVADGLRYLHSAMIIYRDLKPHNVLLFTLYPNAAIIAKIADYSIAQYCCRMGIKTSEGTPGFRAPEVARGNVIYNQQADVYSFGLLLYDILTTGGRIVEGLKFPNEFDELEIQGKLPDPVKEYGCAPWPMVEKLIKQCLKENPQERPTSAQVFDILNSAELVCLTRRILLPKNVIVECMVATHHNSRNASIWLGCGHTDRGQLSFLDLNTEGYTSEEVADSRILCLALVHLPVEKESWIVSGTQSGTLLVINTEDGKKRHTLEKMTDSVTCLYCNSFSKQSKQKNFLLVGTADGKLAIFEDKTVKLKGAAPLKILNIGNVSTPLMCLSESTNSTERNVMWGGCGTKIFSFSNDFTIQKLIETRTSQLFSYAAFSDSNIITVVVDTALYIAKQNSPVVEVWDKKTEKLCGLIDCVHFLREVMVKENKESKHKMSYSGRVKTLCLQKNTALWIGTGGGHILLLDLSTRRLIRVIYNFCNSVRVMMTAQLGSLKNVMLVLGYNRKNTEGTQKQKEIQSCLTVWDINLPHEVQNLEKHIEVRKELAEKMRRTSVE
On the technique in general: ADP-Glo turns the ADP formed in a reaction into a luminescent signal.

The target in the next assay is T1, human GST-DYRK1A (Homo sapiens, UniProt Q13627).
T1 construct: purified human GST-DYRK1A (full length, Thermo Scientifics) enzyme; purchased Thermo Scientifics
Kind of assay: GST-DYRK1A enzyme inhibition, ADP-Glo kinase assay. Conditions: ATP 10 μM, GST-DYRK1A full length, read-out: DYRK1 IC50. In outline:
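Full-length human GST-DYRK1A (10 ng) with 10 μM ATP and specific substrate in 40 mM Tris-HCl pH 7.4, 20 mM MgCl2, 0.5 mg/mL BSA, 50 μM DTT, 1 h at 25 °C. ADP formation read by ADP-Glo luminescence relative to solvent control; IC50 from three data sets.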

Another assay has as its target LRRK2 (Homo sapiens, UniProt Q5S007). Nature of the assay: LRRK2 enzyme inhibition, ADP-Glo kinase assay. Details: purchased Invitrogen PR8604B. Conditions: ATP 10 μM. A digest of the protocol: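 Purified human LRRK2 (25 ng) with 10 μM ATP and 0.2 μg substrate in 40 mM Tris-HCl pH 7.4, 20 mM MgCl2, 0.5 mg/mL BSA, 50 μM DTT, 2 h at 25° C. ADP-Glo luminescence; 12-point compound series from 50 μM final; IC50 relative to solvent control.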

A further assay concerns the target T2, human GST-CLK1 (Homo sapiens, UniProt P49759).
T2 construct: purified human GST-CLK1 (129-end, SignalChem) enzyme; purchased SignalChem
Nature of the assay: GST-CLK1 enzyme inhibition, ADP-Glo kinase assay. Conditions: ATP 10 μM, GST-CLK1 129-end. A digest of the protocol: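 Human GST-CLK1 (129-end, 3 ng) reacted with substrate and 10 μM ATP for 1 h at 25° C in 40 mM Tris-HCl pH 7.4, 20 mM MgCl2, 0.5 mg/mL BSA, 50 μM DTT. ADP-Glo luminescence was normalised to solvent control; IC50 (nM) from 3 data sets.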

T2 sequence (P49759 129-484 limits assumed): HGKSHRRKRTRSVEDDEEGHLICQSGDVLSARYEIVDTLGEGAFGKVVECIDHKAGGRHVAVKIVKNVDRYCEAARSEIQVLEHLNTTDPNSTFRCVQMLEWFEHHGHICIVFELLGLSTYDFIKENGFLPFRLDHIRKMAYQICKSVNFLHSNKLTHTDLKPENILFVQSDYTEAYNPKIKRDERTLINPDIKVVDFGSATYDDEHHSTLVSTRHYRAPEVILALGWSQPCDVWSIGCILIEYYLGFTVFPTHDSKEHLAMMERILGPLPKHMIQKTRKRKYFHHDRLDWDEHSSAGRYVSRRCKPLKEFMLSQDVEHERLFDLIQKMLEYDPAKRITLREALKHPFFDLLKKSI
Sequence of LRRK2 (Q5S007 970-2527 limits assumed): as the sequence (Q5S007 970-2527 G2019S limits assumed) above, with S1050G counted along it

The term IC50 denotes the point on the concentration scale where inhibition reaches its midpoint. For the molecule `COCCNc1nc(Nc2ccc(C(=O)N3CCOCC3)c3c2OCCO3)nc2[nH]cc(C(N)=O)c12` [Example 235, 4-((2-methoxyethyl)amino)-2-((8-(morpholine-4-carbonyl)-2,3-dihydrobenzo[b][1,4]dioxin-5-yl)amino)-7H-pyrrolo[2,3-d]pyrimidine-5-carboxamide], the IC50 against LRRK2 (G2019S), at human GST-DYRK1A, against LRRK2 and on human GST-CLK1 was 301 to 1000 nM in each case.
For `COc1cc(S(C)(=O)=O)ccc1Nc1nc(NC2CCCC2)c2c(C#N)c[nH]c2n1` [Example 106, 4-(cyclopentylamino)-2-((2-methoxy-4-(methylsulfonyl)phenyl)amino)-7H-pyrrolo[2,3-d]pyrimidine-5-carbonitrile], the IC50 is < 100 nM at LRRK2 (G2019S), 301 to 1000 nM on human GST-DYRK1A, < 100 nM on LRRK2 and 301 to 1000 nM on human GST-CLK1.
Consider `CCNc1nc(Nc2ccc(S(C)(=O)=O)cc2OC)nc2[nH]cc(C(F)(F)F)c12` [Example 159, N^4-ethyl-N^2-(2-methoxy-4-(methylsulfonyl)phenyl)-5-(trifluoromethyl)-7H-pyrrolo[2,3-d]pyrimidine-2,4-diamine], for which the IC50 was 301 to 1000 nM against LRRK2 (G2019S), 301 to 1000 nM at human GST-DYRK1A, < 100 nM on LRRK2 and 301 to 1000 nM against human GST-CLK1.
As to `COc1cc(S(C)(=O)=O)ccc1Nc1nc(NC2CCC2)c2c(C#N)c[nH]c2n1` [Example 105, 4-(cyclobutylamino)-2-((2-methoxy-4-(methylsulfonyl)phenyl)amino)-7H-pyrrolo[2,3-d]pyrimidine-5-carbonitrile], the IC50 against LRRK2 (G2019S) is < 100 nM; on human GST-DYRK1A, 301 to 1000 nM; against LRRK2, < 100 nM; on human GST-CLK1 it was 301 to 1000 nM.
Regarding `CCCNc1nc(Nc2ccc(C(=O)N3CCOCC3)c3c2OCCO3)nc2[nH]cc(C#N)c12` [Example 120, 2-((8-(morpholine-4-carbonyl)-2,3-dihydrobenzo[b][1,4]dioxin-5-yl)amino)-4-(propylamino)-7H-pyrrolo[2,3-d]pyrimidine-5-carbonitrile], the IC50 is < 100 nM at LRRK2 (G2019S), 101 to 300 nM on human GST-DYRK1A, < 100 nM against LRRK2 and < 100 nM at human GST-CLK1.
With `CNc1nc(Nc2ccc(S(=O)(=O)N3CCC(N4CCOCC4)CC3)cc2OC)nc2[nH]cc(C#N)c12` [Example 81, 2-((2-methoxy-4-((4-morpholinopiperidin-1-yl)sulfonyl)phenyl)amino)-4-(methylamino)-7H-pyrrolo[2,3-d]pyrimidine-5-carbonitrile], the IC50 against LRRK2 (G2019S) is < 100 nM; at human GST-DYRK1A, 301 to 1000 nM; against LRRK2, < 100 nM; against human GST-CLK1 it was < 100 nM.
`CC(C)Nc1nc(Nc2ccc(C(=O)N3CCOCC3)c3c2OCCO3)nc2[nH]cc(C(F)(F)F)c12` [Example 167, (8-((4-(isopropylamino)-5-(trifluoromethyl)-7H-pyrrolo[2,3-d]pyrimidin-2-yl)amino)-2,3-dihydrobenzo[b][1,4]dioxin-5-yl)(morpholino)methanone]: the 50% inhibitory concentration (IC50) at LRRK2 (G2019S) was < 100 nM; at human GST-DYRK1A, 301 to 1000 nM; against LRRK2, < 100 nM; on human GST-CLK1, 301 to 1000 nM.
In the case of `CCCNc1nc(Nc2ccc(S(C)(=O)=O)cc2OC)nc2[nH]cc(C#N)c12` [Example 99, 2-((2-methoxy-4-(methylsulfonyl)phenyl)amino)-4-(propylamino)-7H-pyrrolo[2,3-d]pyrimidine-5-carbonitrile], the IC50 at LRRK2 (G2019S) is 101 to 300 nM; on human GST-DYRK1A, 301 to 1000 nM; against LRRK2, < 100 nM; on human GST-CLK1 it was 301 to 1000 nM.
As for `COc1cc(S(C)(=O)=O)ccc1Nc1nc(NC2CCCCC2)c2c(C#N)c[nH]c2n1` [Example 107, 4-(cyclohexylamino)-2-((2-methoxy-4-(methylsulfonyl)phenyl)amino)-7H-pyrrolo[2,3-d]pyrimidine-5-carbonitrile], the IC50 against LRRK2 (G2019S), at human GST-DYRK1A, against LRRK2 and against human GST-CLK1 was 301 to 1000 nM each time.
For the molecule `N#Cc1c[nH]c2nc(Nc3ccc(C(=O)N4CCOCC4)c4c3OCCO4)nc(NC3CCC3)c12` [Example 125, 4-(cyclobutylamino)-2-((8-(morpholine-4-carbonyl)-2,3-dihydrobenzo[b][1,4]dioxin-5-yl)amino)-7H-pyrrolo[2,3-d]pyrimidine-5-carbonitrile], the IC50 on LRRK2 (G2019S) is < 100 nM; at human GST-DYRK1A, 301 to 1000 nM; against LRRK2, < 100 nM; against human GST-CLK1, 101 to 300 nM.
On to `COCCNc1nc(Nc2ccc(S(C)(=O)=O)cc2OC)nc2[nH]cc(C#N)c12` [Example 103, 2-((2-methoxy-4-(methylsulfonyl)phenyl)amino)-4-((2-methoxyethyl)amino)-7H-pyrrolo[2,3-d]pyrimidine-5-carbonitrile], for which the IC50 is < 100 nM at LRRK2 (G2019S), 301 to 1000 nM at human GST-DYRK1A, < 100 nM on LRRK2 and 301 to 1000 nM against human GST-CLK1.
With `CCNc1nc(Nc2ccc(C(=O)N3CCC(N4CCOCC4)CC3)c3c2OCCO3)nc2[nH]cc(C#N)c12` [Example 137, 4-(ethylamino)-2-((8-(4-morpholinopiperidine-1-carbonyl)-2,3-dihydrobenzo[b][1,4]dioxin-5-yl)amino)-7H-pyrrolo[2,3-d]pyrimidine-5-carbontrile], the IC50 at LRRK2 (G2019S) is < 100 nM; at human GST-DYRK1A, 101 to 300 nM; against LRRK2 it was < 100 nM; at human GST-CLK1, < 100 nM.
For the molecule `O=C(c1ccc(Nc2nc(NC3CCC3)c3c(C(F)(F)F)c[nH]c3n2)c2c1OCCO2)N1CCOCC1` [Example 185, (8-((4-(cyclobutylamino)-5-(trifluoromethyl)-7H-pyrrolo[2,3-d]pyrimidin-2-yl)amino)-2,3-dihydrobenzo[b][1,4]dioxin-5-yl)(morpholino)methanone], the IC50 against LRRK2 (G2019S) was 101 to 300 nM; on human GST-DYRK1A, 301 to 1000 nM; against LRRK2 it was < 100 nM; at human GST-CLK1, 101 to 300 nM.
Take `CCNc1nc(Nc2ccc(C(=O)N3CCOCC3)c3c2OCCO3)nc2[nH]ccc12` [Example 58, (8-((4-(ethylamino)-7H-pyrrolo[2,3-d]pyrimidin-2-yl)amino)-2,3-dihydrobenzo[b][1,4]dioxin-5-yl)(morpholino)methanone 2,2,2-trifluoroacetate]: the concentration for half-maximal inhibition (IC50) was < 100 nM against LRRK2 (G2019S), 301 to 1000 nM at human GST-DYRK1A, < 100 nM against LRRK2 and 301 to 1000 nM at human GST-CLK1.
As to `C=CCNc1nc(Nc2ccc(S(=O)(=O)N3CCC(N4CCOCC4)CC3)cc2OC)nc2[nH]ccc12` [Example 247, N4-allyl-N2-(2-methoxy-4-((4-morpholinopiperidin-1-yl)sulfonyl)phenyl)-7H-pyrrolo[2,3-d]pyrimidine-2,4-diamine], the IC50 at LRRK2 (G2019S) was < 100 nM; on human GST-DYRK1A it was 301 to 1000 nM; against LRRK2, < 100 nM; on human GST-CLK1, 301 to 1000 nM.
Regarding `O=C(c1ccc(Nc2nc(NC3CC3)c3c(C(F)(F)F)c[nH]c3n2)c2c1OCCO2)N1CCC(N2CCOCC2)CC1` [Example 367, (8-((4-(cyclopropyl-amino)-5-(trifluoromethyl)-7H-pyrrolo[2,3-d]pyrimidin-2-yl)amino)-2,3-dihydrobenzo[b] [1,4]dioxin-5-yl)(4-morpho-linopiperidin-1-yl)methanone], the IC50 is < 100 nM against LRRK2 (G2019S), 101 to 300 nM at human GST-DYRK1A, < 100 nM against LRRK2 and < 100 nM against human GST-CLK1.
Take `N#Cc1c[nH]c2nc(Nc3ccc(C(=O)N4CCOCC4)c4c3OCCO4)nc(NC3CC3)c12` [Example 124, 4-(cyclopropylamino)-2-((8-(morpholine-4-carbonyl)-2,3-dihydrobenzo[b][1,4]dioxin-5-yl)amino)-7H-pyrrolo[2,3-d]pyrimidine-5-carbonitrile]: the IC50 against LRRK2 (G2019S) is < 100 nM; at human GST-DYRK1A, 101 to 300 nM; at LRRK2, < 100 nM; against human GST-CLK1, 101 to 300 nM.
As for `COc1cc(S(C)(=O)=O)ccc1Nc1nc(NC2CC2)c2c(C#N)c[nH]c2n1` [Example 104, 4-(cyclopropylamino)-2-((2-methoxy-4-(methylsulfonyl)phenyl)amino)-7H-pyrrolo[2,3-d]pyrimidine-5-carbonitrile], the half-inhibitory concentration (IC50) against LRRK2 (G2019S) is < 100 nM; at human GST-DYRK1A it was 301 to 1000 nM; against LRRK2, < 100 nM; at human GST-CLK1 it was 101 to 300 nM.
Consider `CNc1nc(Nc2ccc(C(=O)N3CCOCC3)c3c2OCCO3)nc2[nH]cc(C#N)c12` [Example 118, 4-(methylamino)-2-((8-(morpholine-4-carbonyl)-2,3-dihydrobenzo[b][1,4]dioxin-5-yl)amino)-7H-pyrrolo[2,3-d]pyrimidine-5-carbonitrile], for which the IC50 at LRRK2 (G2019S) was < 100 nM; on human GST-DYRK1A, 301 to 1000 nM; at LRRK2, < 100 nM; on human GST-CLK1 it was < 100 nM.
